The values below come from patent publication US20250263404A1, “AMINOPYRIDINES AS ACTIVATORS OF PI3 KINASE” (UCL Business Ltd, priority 2021, published 2025).

This experiment relates to mice. The experiment is described as follows: In vivo model of ischaemia reperfusion injury in mice. More on the design: species or system mouse. The conditions noted are these: 10 mg/kg via jugular vein. The procedure: Male C57/BL6 mice weighing 25-30 g were used throughout. Animals received humane care in accordance with the United Kingdom Home Office Guide on the Operation of Animal (Scientific Procedures) Act 1986, Project Licence PPL70/15358.
Animals were anaesthetised with intraperitoneal (i.p.) sodium pentobarbital at a dose of 100 mg/kg. The mice were intubated by tracheotomy and ventilated with room air using a small animal ventilator (MinVent, Type 845, Hugo Sachs Elektronik, Harvard Apparatus). The mice were then placed on a heating pad and the rectal temperature monitored and maintained at ˜37° C. using a temperature controller. During the experiments, both ECG and heart rate were continuously recorded using a PowerLab (Adinstrument, USA). […]
After 120 min reperfusion, the chest was re-opened, the heart was removed and cannulated via the thoracic aorta, and blood within the heart was washed out with saline. […] The total area of myocardium, the non-ischaemic area (which is stained with Evans blue), and the infarct area (i.e. the white area) of each slice were measured using Image-J software. The “area at risk” was calculated by subtraction of the non-ischaemic area (blue area) from the whole slice area and expressed as “percentage of the left ventricle”, and “infarct size” calculated as infarct area as a percentage of the area at risk. […]

Regarding `CCN1CCN(c2ccc(Nc3cc(Nc4cccc5c4N(C(C)=O)CC5)ccn3)cc2)CC1` [Example 1938], the “pAKT^S473 levels in the hearts of mice” value is reported as “corresponding increase in pAKT^S473 levels”. In addition, the cardioprotection in mice entry (15 min prior to reperfusion) was “significant cardioprotection”.
